From patent US20210038577A1, “THIOREDOXIN REDUCTASE INHIBITORS FOR USE IN THE TREATMENT OF CANCER” (Cinda Pharma AB, priority 2018, published 2021)

Assays:
[1] = test system: Tregs in TM00098 patient-derived xenografts; test: Tumor infiltrated Treg levels by flow cytometry, TM00098 PDX in Hu-CD34-NSG mice; type: in vivo; details: day 41, both donors, versus vehicle / other treatment
Method: Female NSG mice were implanted with human CD34+ hematopoietic stem cells from multiple donors and the level of human CD45+ cells were measured in the peripheral blood 12 weeks post engraftment. Mice with >25% human CD45+ cells in the peripheral blood were determined to have a humanized immune system (Hu-CD34-NSG™) mice and were enrolled into the study. The Hu-CD34-NSG mice were implanted with TM00098 patient-derived xenografts (PDX) subcutaneously on the right flank. The TM00098 PDX cancer cells originate from a primary tumor of a patient suffering from a grade 3 TNBC invasive ductal carcinoma. […] Tumor volume was measured using a digital caliper two times a week for the duration of the study. […] Cell populations was determined by electronic gating (P1=total leukocytes) on the basis of forward versus side scatter. […] The percentage of Tregs of CD45+ cells were calculated. […] Statistical significance (p<0.05) was determined using a Mann-Whitney test.

[2] = test system: 4T1-luc2 murine tumor cells; test: 4T1-luc2 tumors in mammary fat pad of immunocompetent BALB/c mice; type: in vivo; details: 5 mg/kg 5/2 for 15 days, bioluminescence
Method: Female BALB/c immunocompetent mice were implanted with 1×10^5 4T1-luc2 murine tumor cells into the mammary fat pad. Upon growth of the tumors between 60-90 mm^3 the animals were selected for imaging. Mice were randomized and enrolled for treatment based on imaging flux values. Mice were treated once daily with 5 mg/kg of either OT-1096 or vehicle control using a 5/2 (five days on, two days off) dosing protocol. Upon days 1, 8, and 15 whole body imaging was performed on the mice to follow tumor cell luminescence. Analysis consists of primary tumor luminescence in mice. Each mouse was normalized to its own baseline luminescence from day 1. […] Data is represented as mean±SEM. Statistical significance (p<0.05) was determined using a Mann-Whitney test. The relative luminescence flux for mice treated with OT-1096 was significant compared to vehicle at day 15.
Athymic nude mice were inoculated orthotopically with 5×10^6 MDA-MB-231 breast cancer cells into the mammary fat pad, and randomized for treatment when tumors reached an average volume of 80-120 mm^3 (N=12 in each group). […] Xenograft tumor volume was assessed using caliper measurements for 25 days. […] Xenograft tumor volume was assessed using caliper measurements for 25 days. […] Statistical significance (p<0.05) was determined using a Two-way repeated measures ANOVA with Sidak's multiple comparison test. […]

CCCCCCCCS(=O)(=O)c1nc(OC)ccc1[N+](=O)[O-] [OT-1096, 6-methoxy-3-nitro-2-(octylsulfonyl)pyridine]
levels of tumor infiltrated Tregs (% Tregs of CD45+ cells) [1]: decreased | % TGI [2]: 54%
